Laboratory results: ChEMBL document CHEMBL2384920, “Ester prodrugs of acyclic nucleoside thiophosphonates compared to phosphonates: synthesis, antiviral activity and decomposition study” (Eur J Med Chem, 2013)
Activity calls are given as the source filed them. The calls are words filed in the database; no cut-off is given here.

Experiments:
[1] = Cytotoxicity against human HEL cells assessed as effect on cell morphology; format: cell-based
Vaccinia virus [2] = assay: Antiviral activity against Vaccinia virus infected in human HEL cells assessed as reduction of virus-induced cytopathicity at 200 uM measured at day 3 by microscopic analysis; format: functional, organism-based; conditions: Orthopoxvirus vaccinia
[3] = Cytotoxicity against human HuH7 cells assessed as reduction of cell density; format: cell-based, Huh-7
Hepatitis B virus = assay: Antiviral activity against wild type HBV transfected in human HuH7 cells assessed as reduction of viral DNA level after 7 days by qPCR analysis; format: functional, organism-based; conditions: Huh-7, 168 h
[4] = test system: Human immunodeficiency virus 2; assay: Antiviral activity against wild type HIV-2 ROD infected in human CEM cells assessed as inhibition of syncytia formation after 4 days by microscopic analysis; format: functional, organism-based; conditions: Human immunodeficiency virus 2, ISOLATE ROD, CCRF-CEM, 96 h
Human alphaherpesvirus 1 [5] = assay: Antiviral activity against Human simplex virus 1 KOS infected in human HEL cells assessed as reduction of virus-induced cytopathicity measured at day 3 by microscopic analysis; format: functional, organism-based; conditions: Human alphaherpesvirus 1, KOS, 72 h
[6] = test system: Human immunodeficiency virus 1; assay: Antiviral activity against wild type HIV-1 3B infected in human CEM cells assessed as inhibition of syncytia formation after 4 days by microscopic analysis; format: functional, organism-based; conditions: Human immunodeficiency virus 1, 3B, CCRF-CEM, 96 h
[7] = Prodrug conversion assessed as snake venome phosphodiesterase-mediated thiophosphonate monoester formation at 5 mM; format: ADME; conditions: crotalus adamanteus, 5000 µM
Human alphaherpesvirus 2 = assay: Antiviral activity against Human simplex virus 2 G infected in human HEL cells assessed as reduction of virus-induced cytopathicity measured at day 3 by microscopic analysis; format: functional, organism-based; conditions: Human alphaherpesvirus 2, strain G, 72 h
Human alphaherpesvirus 1 [8] = assay: Antiviral activity against thymidine kinase-deficient Human simplex virus 1 KOS infected in human HEL cells assessed as reduction of virus-induced cytopathicity measured at day 3 by microscopic analysis; format: functional, organism-based; conditions: Human alphaherpesvirus 1, KOS, 72 h
[9] = Cytotoxicity against mock-infected human CEM cells assessed as growth inhibition; format: cell-based, CCRF-CEM
Vaccinia virus [10] = assay: Antiviral activity against Vaccinia virus infected in human HEL cells assessed as reduction of virus-induced cytopathicity measured at day 3 by microscopic analysis; format: functional, organism-based; conditions: Orthopoxvirus vaccinia, 72 h
[11] = Prodrug conversion assessed as snake venome phosphodiesterase-mediated PMEA formation at 5 mM; format: ADME; conditions: crotalus adamanteus, 5000 µM
[12] = Prodrug conversion assessed as snake venome phosphodiesterase-mediated (R)-9-[2-(Thiophosphonomethoxy)propyl]adenine disodium salt formation at 5 mM; format: ADME; conditions: crotalus adamanteus, 5000 µM
[13] = Stability of the compound in DMEM assessed as half life of first step of hydrolysis; format: physicochemical
[14] = Half life of the compound in presence of carboxyesterase; format: physicochemical
[15] = Stability of the compound in RPMI-1640 assessed as half life of first step of hydrolysis; format: physicochemical
[16] = Prodrug conversion assessed as snake venome phosphodiesterase-mediated phosphonate monoester formation at 5 mM; format: ADME; conditions: crotalus adamanteus, 5000 µM
[17] = Prodrug conversion assessed as snake venome phosphodiesterase-mediated PMPA formation at 5 mM; format: ADME; conditions: crotalus adamanteus, 5000 µM

Structure (SMILES)	MCC [1] [µM]	CC50 [3] [nM]	EC50 (Hepatitis B virus) [nM]	EC50 [4] [nM]	EC50 (Human alphaherpesvirus 1 [5]) [nM]	EC50 [6] [nM]	EC50 (Human alphaherpesvirus 2) [nM]	EC50 (Human alphaherpesvirus 1 [8]) [nM]	CC50 [9] [nM]	EC50 (Vaccinia virus [10]) [nM]	other results
Nc1ccn(C[C@@H](CO)OCP(=O)(O)O)c(=O)n1 [CIDOFOVIR]	> 250	–	–	–	–	–	–	–	–	–	–
Nc1ncnc2c1ncn2CCOCP(=O)(O)S (centres undefined)	–	–	–	–	–	–	–	–	–	–	Activity (Vaccinia virus [2]): Active
CC(C)OC(=O)OCOP(=S)(CO[C@H](C)Cn1cnc2c(N)ncnc21)OCOC(=O)OC(C)C	> 50	> 25000	1140	130	> 50000	92	> 50000	> 50000	> 25000	> 50000	Drug metabolism [7]: Active
CC(C)(C)C(=O)OCOP(=O)([O-])COCCn1cnc2c(N)ncnc21.[Na+]	–	–	–	–	–	–	–	–	–	–	Drug metabolism [11]: Active
CC(C)OC(=O)OCOP([O-])(=S)CO[C@H](C)Cn1cnc2c(N)ncnc21.[Na+] (some centres undefined)	–	–	–	–	–	–	–	–	–	–	Drug metabolism [12]: Active
CC(C)(C)C(=O)OCOP(=S)(COCCn1cnc2c(N)ncnc21)OCOC(=O)C(C)(C)C	> 50	> 25000	1450	≥ 200	3900	≥ 200	3900	3900	2000	29000	Drug metabolism [7]: Active
CC(C)(C)C(=O)OCOP(=O)(COCCn1cnc2c(N)ncnc21)OCOC(=O)C(C)(C)C [ADEFOVIR DIPIVOXIL]	> 50	> 25000	830	62	200	45	200	200	1600	4000	half-life [13]: 1 h; half-life [14]: > 7 h; half-life [15]: 1 h; Drug metabolism [16]: Active
CC(C)OC(=O)OCOP(=O)(CO[C@H](C)Cn1cnc2c(N)ncnc21)OCOC(=O)OC(C)C [TENOFOVIR DISOPROXIL]	> 50	> 25000	880	13	5800	16	5800	9600	> 25000	> 50000	half-life [13]: 1 h; half-life [15]: 1 h; Drug metabolism [16]: Active
CC(C)OC(=O)OCOP(=O)([O-])CO[C@H](C)Cn1cnc2c(N)ncnc21.[Na+]	–	–	–	–	–	–	–	–	–	–	Drug metabolism [17]: Active; half-life [14]: > 7 h
Nc1ncnc2c1ncn2CCOCP(=O)(O)O	–	–	–	–	–	–	–	–	–	–	Activity (Vaccinia virus [2]): inactive
Nc1nc2c(ncn2COCCO)c(=O)[nH]1 [ACYCLOVIR]	> 250	–	–	–	–	–	–	29000	–	> 250000	–
